Assay results as given in patent US20250161329A1, “USE OF UV FILTERS FOR THE TREATMENT OF ACNE” (DSM IP ASSETS B.V., priority 2022, published 2025).

Legend:
[1] = system: Cutibacterium acnes ATCC 11827; assay: In vitro UV model, survival of C. acnes after UV irradiation (96-well liquid model, plate counting); assay type: cell-based; settings: for C. acnes relative protection by the UV filter(s) vs. vehicle control / C. acnes survival: UV 3 SED (UVA+UVB 30 mJ/cm^2), after 4 h, sample at 20% v/v; for C. acnes relative protection by the UV filter(s) vs. vehicle control: (sample survival - vehicle survival)/vehicle survival; for C. acnes survival: compared to untreated and non-irradiated control
Protocol: Accordingly, the inventors developed a targeted in vitro liquid model in 96-well microplate format to screen for UV protective actives (“UV filters”) on bacterial survival. The effects of selected UV irradiation conditions tested on microbial population of C. acnes and the commensal reference strain of Staphylococcus epidermidis in the presence of various UV filters and combinations thereof were evaluated with the evolution of the residual microbial population after 4 h. The inhibition of bacterial growth, as consequence of UV irradiation, was compared to that of the same strain without UV irradiation and was expressed in percentage of survival (%). The microbial strains used in this study are listed below and their cultures are reconstituted according to the direction of the supplier collection center of the reference strain, (ATCC American Type Culture Collection, USA): • Cutibacterium acnes ATCC 11827 • Staphylococcus epidermidis ATCC 12228 The 96-well plate was filled with the recommended culture media (140 μL) and a calibrated inoculum (20 μL) of each bacterial strain was added to reach […] colony forming units per milliliter (cfu/mL) final concentration. After contamination, the sample was added (40 μL; 20% v/v) in triplicate and was thoroughly mixed to ensure a homogeneous distribution. Then, the plate was submitted to UV stress through an UV irradiator system (BioSun, Vilber Lourmat, France) according to the UV doses presented Table 1 below. The specific UV dose selected was between 10 and 49% survival of the microbial population. The counting of C. acnes microbial population was performed by plating aliquots on the agar plates and was done in triplicate. The enumeration of grown C. acnes colonies was used to determine the decrease rate of microbial population. Controls performed during this experiment were the culture medium with bacteria incubated without UV stress. The microbial population counts were expressed in cfu/mL and were the average of experiment done in triplicate. The use level of the single UV filter and combinations in the test formulations was calculated to obtain a predicted in vitro SPF value of 5.75+/−0.15 and 23.45+/−0.65, respectively (Table 2). The UV filters were mixed in the two oils, Tegosoft XC (55%) and Miglyol 829 Eco (ad100%) and the emulsifier Tween 80 (5%). The effect of selected UV irradiation conditions on the survival of microbial population of C. acnes and S. epidermidis in the presence of the tested samples 1-10 at 20% v/v, was compared with the corresponding strain in the absence of samples 1-10 and without exposure to UV irradiation (control). The results after the 4-hour incubation were compared to the population of bacteria incubated without UV stress (determination of bacterial population survival) and were expressed in percentage of survival (%). The relative percentage of protection (%) was calculated from the difference between the survival percentages of samples and vehicle control (with UV irradiation) and divided to the survival percentage of the vehicle control. Consequently, the survival of each microbial population and the relative protection by the UV filter(s) were calculated and are summarized in the Table 2.

[2] = system: Staphylococcus epidermidis ATCC 12228; assay: In vitro UV model, survival of S. epidermidis after UV irradiation (96-well liquid model, MPN method); assay type: cell-based
Protocol: Accordingly, the inventors developed a targeted in vitro liquid model in 96-well microplate format to screen for UV protective actives (“UV filters”) on bacterial survival. The effects of selected UV irradiation conditions tested on microbial population of C. acnes and the commensal reference strain of Staphylococcus epidermidis in the presence of various UV filters and combinations thereof were evaluated with the evolution of the residual microbial population after 4 h. The inhibition of bacterial growth, as consequence of UV irradiation, was compared to that of the same strain without UV irradiation and was expressed in percentage of survival (%). […] The use level of the single UV filter and combinations in the test formulations was calculated to obtain a predicted in vitro SPF value of 5.75+/−0.15 and 23.45+/−0.65, respectively (Table 2). […] The relative percentage of protection (%) was calculated from the difference between the survival percentages of samples and vehicle control (with UV irradiation) and divided to the survival percentage of the vehicle control. Consequently, the survival of each microbial population and the relative protection by the UV filter(s) were calculated and are summarized in the Table 2.

SMILES | C. acnes relative protection by the UV filter(s) vs. vehicle control [1] | C. acnes survival [1] | effect on the commensal bacterium S. epidermidis upon UV irradiation (in words) [2] | effect on the population of C. acnes upon UV irradiation (in words) ([1]; C. acnes ATCC 11827, phylotype IA, upon UV irradiation)
CCCCC(CC)COC(=O)c1ccccc1O (stereo not shown) [Inv. 2, Ethylhexyl Salicylate] | (−30) % | 46% |  | 
CCCCC(CC)COC(=O)c1ccc(Nc2nc(Nc3ccc(C(=O)OCC(CC)CCCC)cc3)nc(Nc3ccc(C(=O)OCC(CC)CCCC)cc3)n2)cc1 (stereo not shown) [Ref. 1, Ethylhexyl Triazone, reference compound] | (+40) % | 92% |  | 
CCCCC(CC)COC(=O)C(C#N)=C(c1ccccc1)c1ccccc1 (stereo not shown) [Inv. 1, Octocrylene] | (−15) % | 56% | maintain or even propagating the commensal bacterium S. epidermidis | reduced the population of C. acnes
CCCCC(CC)COc1ccc(-c2nc(-c3ccc(OC)cc3)nc(-c3ccc(OCC(CC)CCCC)cc3O)n2)c(O)c1 (stereo not shown) [Ref. 2, Bis-Ethylhexyloxyphenol Methoxyphenyl Triazine, reference compound] | (+13) % | 74% |  | 
